# According to patent publication US5324832A, “Muscarinic antagonists” (priority 1991, dated 1994):
# Entries after “also recorded” stand apart in the source; their conditions may differ.
# Legend:
# m2 muscarinic receptors = biological target: T1, m2 muscarinic receptors (Rattus norvegicus, UniProt P10980); experiment: Inhibition of [3H]NMS binding, membranes from rat heart (m2 receptors); conditions: for factor by which 29a and 32d differ in affinity at m2 receptors: 29a versus 32d
# T1 construct: Rat heart tissue was the source of m2 muscarinic receptors; from tissue; host or cells: rat heart
# T1 sequence (P10980 1-466): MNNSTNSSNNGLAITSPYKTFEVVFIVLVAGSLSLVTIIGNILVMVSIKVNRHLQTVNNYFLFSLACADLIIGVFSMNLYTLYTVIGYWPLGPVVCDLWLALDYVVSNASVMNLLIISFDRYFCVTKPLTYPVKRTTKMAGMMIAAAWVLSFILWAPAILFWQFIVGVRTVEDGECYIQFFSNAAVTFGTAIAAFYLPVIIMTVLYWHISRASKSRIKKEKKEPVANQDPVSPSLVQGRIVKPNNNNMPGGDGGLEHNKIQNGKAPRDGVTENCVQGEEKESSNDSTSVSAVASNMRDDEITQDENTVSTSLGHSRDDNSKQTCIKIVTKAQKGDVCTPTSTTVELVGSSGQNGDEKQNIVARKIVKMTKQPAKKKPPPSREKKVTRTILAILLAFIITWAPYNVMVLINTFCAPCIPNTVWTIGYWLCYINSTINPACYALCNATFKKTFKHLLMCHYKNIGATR
# Excerpt: (§1) The analogues were screened in binding assays using membranes from cells or tissues containing primarily single subtypes of m1 through m4 muscarinic receptors. Transfected A9L cells were used as a source of homogeneous populations of m1, m3, and m4 receptors. See Jones, S. V.; Barker, J. L.; Buckley, N. J.; Bonner, T. I; Brann, M. R., Mol. Pharmacol., 1988, 34, 421, which is specifically incorporated by reference herein. Rat heart tissue was the source of m2 muscarinic receptors.
# (§2) A crude membrane fraction was obtained as follows. Confluent cultures were rinsed three times with phosphate-buffered saline, and lysed in a solution of 2 mM Tris-HCl (pH 7.1) and 1 mM EDTA for 30 min at 2° C. The cells were harvested by scraping and homogenized on a Polytron (10 sec, 75% mix).
# (§3) Nuclei were removed in a low speed centrifugation (400 × g, 5 min) and a crude membrane preparation was obtained by centrifugation of the supernatant at 50,000 × g for 20 min. The resulting pellet was resuspended in the lysis buffer and recentrifuged at 50,000 × g for 20 min. Membranes were stored frozen at -70° C. until needed.
# (§4) The total volume was 1 mL.
# (§5) The incubation was terminated by rapid filtration over GF/B filters using a Brandel cell harvester. The filters were washed three times with ice-cold 0.9% NaCl, equilibrated in scintillation counting fluid and counted on a Beckmann LS 5801 liquid scintillation counter at 47% efficiency.
# (§6) It was routinely subtracted from the total counts.
# [1] = tested on: m1 through m4 muscarinic receptors; experiment: Displacement of [3H]NMS from muscarinic receptors (m1-m4), subtype not singled out; type: binding; conditions: for affinity / potency at muscarinic receptors / displacement of [3H]NMS from the receptor / receptor subtype selectivity: in words; for affinity / potency at muscarinic receptors: qualitative; for receptor subtype selectivity: m1 versus m2 / among subtypes; for Ki: in the vicinity of, subtype not stated, read-out: Ki, inhibition of [3H]NMS binding
# Excerpt: as §1, §2, §3, §4, §5, §6
# m1 muscarinic receptors [2] = biological target: T2, m1 muscarinic receptors (Rattus norvegicus, UniProt P08482); experiment: Inhibition of [3H]NMS binding, membranes of transfected A9L cells expressing m1 receptors; parameters: expressed in transfected cells; host or cells: A9L cells (obtained from Dr. M. Brann, NIH); conditions: for factor by which 29a and 32d differ in affinity at m1 receptors: 29a versus 32d; for selectivity ratio m1 versus m2 receptors: in favor of m1 versus m2 receptors
# T2 sequence (P08482 1-460): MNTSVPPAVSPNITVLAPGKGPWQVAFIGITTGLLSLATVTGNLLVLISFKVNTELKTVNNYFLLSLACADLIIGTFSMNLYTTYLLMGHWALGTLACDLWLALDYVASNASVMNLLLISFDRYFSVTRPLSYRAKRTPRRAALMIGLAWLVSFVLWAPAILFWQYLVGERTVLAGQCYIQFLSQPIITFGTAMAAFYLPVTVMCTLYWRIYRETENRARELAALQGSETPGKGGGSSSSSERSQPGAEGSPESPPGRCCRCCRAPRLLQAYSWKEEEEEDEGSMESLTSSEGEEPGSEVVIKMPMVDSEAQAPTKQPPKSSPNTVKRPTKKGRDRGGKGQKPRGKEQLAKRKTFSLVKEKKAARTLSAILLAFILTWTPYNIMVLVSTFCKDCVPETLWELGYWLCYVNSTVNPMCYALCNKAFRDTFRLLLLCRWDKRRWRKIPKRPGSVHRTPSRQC
# Procedure: The analogues were screened in binding assays using membranes from cells or tissues containing primarily single subtypes of m1 through m4 muscarinic receptors. Transfected A9L cells were used as a source of homogeneous populations of m1, m3, and m4 receptors. […] Rat heart tissue was the source of m2 muscarinic receptors.
# A crude membrane fraction was obtained as follows. Confluent cultures were rinsed three times with phosphate-buffered saline, and lysed in a solution of 2 mM Tris-HCl (pH 7.1) and 1 mM EDTA for 30 min at 2° C.
# as §3, §4
# The incubation was terminated by rapid filtration over GF/B filters using a Brandel cell harvester.
# as §6
# muscarinic receptors = conditions: in words; cited from earlier work
# [3] = Storage stability of the salt; type: physicochemical; conditions: -20 ° C.; dihydrochloride salt
# Procedure: Compound 25 (110 mg, 0.22 mmol) was refluxed for 1 h with thionyl chloride (1 mL) in chloroform (4 mL). The volatile material was removed in vacuo, and the residue was basified with aqueous Na2 CO3 (pH 10) and washed immediately with ether to completely remove the non polar impurity (TLC CHCl3 /CH3 OH/NH4 OH: 9/1/0.1, Rf 0.4). The product was extracted into CHCl3 from the cold aqueous phase and the combined CHCl3 layers were concentrated in vacuo and acidified using ether/HCl. The precipitate was dried in vacuo to yield 29 mg of 26 (25%) as a white solid: mp 188°-190° C.; 1H NMR (D20, HCl salt) δ 3.00-4.00 (m, 14 H), 7.50-7.70 (m, 3 H), 7.70-7.90 (m, 3 H), 8.40 (s, 1 H); MS (CI/NH3) m/e 400 (MH+), 212 (base), 364, 338. […] The salt was stable upon storage at -20 ° C. for at least 6 months.
# m1 muscarinic receptors [4] = biological target: T2, m1 muscarinic receptors; type: binding; conditions: 1.0 mM compound 26, in words
# Procedure: To assay for irreversible inhibition in rat brain membranes, Scatchard analyses before and after treatment of the membranes with 26 were compared. Even a very […].
# Aliquots of brain membranes were incubated with 1.0 mM of freshly dissolved 26 in phosphate-buffered saline (pH 8.0) for 60 min at room temperature, then centrifuged at 15,000 rpm for 10 min.
# The resulting pellet was resuspended in 25 mL of fresh phosphate-buffered saline (pH 7.2) and centrifuged as above.
# [5] = in words, versus propargyl derivative 22
compound,measurement,setting,value
CC(C)(C)OC(=O)NCCCCCCN1CCN(CC(=O)N2c3ccccc3C(=O)Nc3cccnc32)CC1 [Compound 32d],factor by which 29a and 32d differ in affinity at m2 receptors,m2 muscarinic receptors; m2,280
same,affinity / potency at muscarinic receptors,[1],more potent than the corresponding free amines (34)
same,factor by which 29a and 32d differ in affinity at m1 receptors,m1 muscarinic receptors [2]; m1,360
CCN(CC)CCCCC1CCN(CC(=O)N2c3ccccc3C(=O)Nc3cccnc32)CC1 [AQ-RA 741],muscarinic receptor selectivity (literature),muscarinic receptors,selective for M2 receptors
"CCN1C(=O)c2ccccc2N(C(=O)CN2CCN(C)CC2)c2ncccc21 [Compound 17a, 5-Ethyl-11-hydro-[(4-methyl-1-piperazinyl)acetyl]-6H-pyrido[2,3-b][1,4]-benzodiazepine-6-one]",affinity / potency at muscarinic receptors,[1],low affinity
"CN1CCN(CC(=O)N2c3cc(CO)ccc3C(=O)Nc3cccnc32)CC1 [Compound 16, 5,11-Dihydro-9-hydroxymethyl-11-[(4-methyl-1-piperazinyl)acetyl]-6H-pyrido[2,3-b] [1,4]benzodiazepine-6-one]",displacement of [3H]NMS from the receptor,[1],detectable displacement of [^3 H]NMS
"O=C1Nc2cccnc2N(C(=O)CN2CCN(Cc3ccccc3)CC2)c2ccccc21 [Compound 23, 5,11-Dihydro-11-[(4-benzyl-1-piperazinyl)acetyl]-6H-pyrido[2,3-b] [1,4]benzodiazepine-6-one]",affinity at m2 muscarinic receptors relative to 22,m2 muscarinic receptors; [5],greater affinity at m1 and m2 muscarinic receptors
same,receptor subtype selectivity,[1],non-selective for m1 versus m2 receptors
same,affinity at m1 muscarinic receptors relative to 22,m1 muscarinic receptors [2]; [5],greater affinity at m1 and m2 muscarinic receptors
CN1CCN(CC(=O)N2c3ccccc3C(=O)N(CCCCCCC#N)c3cccnc32)CC1 [Compound 17b],affinity / potency at muscarinic receptors,[1],low affinity
"NCCCCCCCCCCN1CCN(CC(=O)N2c3ccccc3C(=O)Nc3cccnc32)CC1 [Compound 34h, 5,11-Dihydro-11-[(4-[10-aminodecyl]-1-piperazinyl)acetyl]-6H-pyrido[2,3-b][1,4]-benzodiazepine-6-one]",Kd,m2 muscarinic receptors; m2,< 20 nM
same,affinity / potency at muscarinic receptors,[1],higher affinities than the corresponding derivatives with the small neutral acetylamino terminal group (35g and 35h); also recorded: most potent in the series of primary amines
same,receptor subtype selectivity,[1],non-selective
same,Kd,m1 muscarinic receptors [2]; m1,< 20 nM
COc1ccccc1CNCCCCCCNCCCCCCCCNCCCCCCNCc1ccccc1OC [methoctramine],muscarinic receptor selectivity (literature),muscarinic receptors,m2-selective muscarinic antagonist
"O=C1Nc2cccnc2N(C(=O)CN2CCN(CCO)CC2)c2ccccc21 [Compound 25, 5,11-Dihydro-11-[(4-[2-hydroxyethyl]-1-piperazinyl)acetyl]-6H-pyrido[2,3-b][1,4]benzodiazepine-6-one]",Ki,[1],~1000 nM
NCCCCCCCCCN1CCN(CC(=O)N2c3ccccc3C(=O)Nc3cccnc32)CC1 [Compound 34g],affinity / potency at muscarinic receptors,[1],higher affinities than the corresponding derivatives with the small neutral acetylamino terminal group (35g and 35h)
"Cl.Cl.O=C1Nc2cccnc2N(C(=O)CN2CCN(CCCl)CC2)c2ccccc21 [Compound 26, 5,11-Dihydro-11-[(4-[2-chloroethyl]-1-piperazinyl)acetyl]-6H-pyrido[2,3-b][1,4]benzodiazepine-6-one dihydrochloride]",stability of the salt upon storage,[3],at least 6 months
same,affinity / potency at muscarinic receptors,[1],high binding affinity
same,receptor subtype selectivity,[1],retained selectivity for m1 receptors
same,selectivity ratio m1 versus m2 receptors,m1 muscarinic receptors [2],4.4 fold
same,change in Kd and Bmax of [3H]NMS after preincubation,m1 muscarinic receptors [4],no change in the Kd and Bmax values
same,irreversible inhibition of m1 receptors,m1 muscarinic receptors [4]; dihydrochloride,not an irreversible inhibitor of m1 receptors; also recorded: lack of irreversible inhibition
CSc1ccc2c(c1)C(=O)Nc1cccnc1N2C(=O)CN1CCN(C)CC1 [Compound 11a],displacement of [3H]NMS from the receptor,[1],detectable displacement of [^3 H]NMS
"Cc1scc2c1N(C(=O)CN1CCN(CCCCCCCCCCN)CC1)c1ccccc1NC2=O [Compound 40, n=10, 4,9-Dihydro-3-methyl-4-[[4-(10-aminodecyl)-1-piperazinyl]-acetyl]-10H-thieno[3,4-b][1,5]benzodiazepin-10-one]",Ki,"m1 muscarinic receptors [2]; radioligand binding assays, read-out: affinity for m1 receptors (Ki)",2.39 nM
Cc1scc2c1N(C(=O)CN1CCN(C)CC1)c1ccccc1NC2=O [telenzepine],muscarinic receptor selectivity (literature),muscarinic receptors,preserve selectivity for m1 receptors
same,potency as muscarinic antagonist relative to pirenzepine (literature),muscarinic receptors,more potent antagonist
same,selectivity ratio / factor for m1 receptors,m1 muscarinic receptors [2]; m1 versus m2 receptors,25
CC(=O)NCCN1CCN(CC(=O)N2c3ccccc3C(=O)Nc3cccnc32)CC1 [Compound 28],Ki,[1],~1000 nM
NCCCCCN1CCN(CC(=O)N2c3ccccc3C(=O)Nc3cccnc32)CC1 [Compound 34c],selectivity ratio m1 versus m2 receptors,m1 muscarinic receptors [2],5 fold
CC(C)(C)OC(=O)NCCC(=O)NCCN1CCN(CC(=O)N2c3ccccc3C(=O)Nc3cccnc32)CC1 [Compound 29a],factor by which 29a and 32d differ in affinity at m2 receptors,m2 muscarinic receptors; m2,280
same,affinity / potency at muscarinic receptors,[1],inactivity
same,factor by which 29a and 32d differ in affinity at m1 receptors,m1 muscarinic receptors [2]; m1,360
"C#CCN1CCN(CC(=O)N2c3ccccc3C(=O)Nc3cccnc32)CC1 [Compound 22, 5,11-Dihydro-11-[(4-propargyl-1-piperazinyl)acetyl]-6H-pyrido[2,3-b][1,4]benzodiazepine-6-one]",Ki,[1],~1000 nM
same,receptor subtype selectivity,[1],non-selective
"NCCN1CCN(CC(=O)N2c3ccccc3C(=O)Nc3cccnc32)CC1 [Compound 27, 5,11-Dihydro-11-[(4-[2-aminoethyl]-1-piperazinyl)acetyl]-6H-pyrido[2,3-b][1,4]benzodiazepine-6-one]",Ki,[1],~1000 nM
